Measurements taken from publication PMC7727793, “Aggregation Behavior, Antibacterial Activity and Biocompatibility of Catanionic Assemblies Based on Amino Acid-Derived Surfactants” (International Journal of Molecular Sciences, 2020).

Legend:
[1] = system: Pseudomonas aeruginosa ATCC 27853; assay: Broth microdilution MIC; format: cell-based; details: 24 h, 37 °C, total surfactant concentration
Method: (§1) Antibacterial assays were conducted in vitro using the broth microdilution method. The minimum inhibitory concentration (MIC) is the smallest concentration of antibacterial agent at which bacterial growth is not observed. MIC values were determined for 4 Gram-positive bacteria (methicillin-resistant Staphylococcus aureus ATCC 43300 (MRSA), Bacillus subtilis ATCC 6633, Kocuria rhizophila 9341, Staphylococcus epidermidis ATCC 12228), 3 Gram-negative bacteria (Klebsiella pneumoniae ATCC 4532, Pseudomonas aeruginosa ATCC 27853, Escherichia coli ATCC 8739) and the fungal strain, Candida albicans ATCC 10231. Frozen stocks of bacteria were incubated on Muller Hinton agar plates for 24 h at 37 °C. From this culture, a bacterial suspension of 1 × 10^6 colony forming units CFU/mL was prepared in MHB (pH = 7.3). Two dilutions of pure surfactants and their binary mixtures were prepared in MH broth to obtain a final concentration ranging from 4 to 454 μM in the microtiter plates.
(§2) Then, 10 μL of nutrient broth culture of each microorganism was added to achieve a final density of ca. 5 × 10^5 CFU/mL. The cultures were incubated for 24 h at 37 °C. Every assay was repeated three times.

[2] = system: Staphylococcus epidermidis ATCC 12228; assay: Broth microdilution MIC; format: cell-based; details: 24 h, 37 °C, total surfactant concentration
Method: as §1, §2

[3] = system: Bacillus subtilis ATCC 6633; assay: Broth microdilution MIC; format: cell-based; details: 24 h, 37 °C, total surfactant concentration
Method: as §1, §2

[4] = system: Kocuria rhizophila ATCC 9341; assay: Broth microdilution MIC; format: cell-based; details: 24 h, 37 °C, total surfactant concentration
Method: as §1, §2

[5] = system: Candida albicans ATCC 10231; assay: Broth microdilution MIC; format: cell-based; details: 24 h, 37 °C, total surfactant concentration
Method: as §1, §2

[6] = SAXS, core-shell model fit; format: physicochemical
Method: SAXS was measured at the Non-Crystalline Diffraction beamline at ALBA Synchrotron NCD-SWEET, Barcelona. A sample-detector distance of 2.433 m was used with 0.10 nm wavelength coupled with a Q315r detector from ADSC. The q scale was calibrated with a silver behenate sample, and data reduction was performed with the software provided by the beamline. The intensity is shown as a function of scattering vector q expressed in nm^−1. q = (4π/λ) sin(θ/2), where θ is the scattering angle and λ is the wavelength of radiation. The spectra have been fitted to lamellar models based on Gaussian description of the bilayer electronic profile for the vesicles, as described in Haba et al.. We have kept the bilayer hydrophobic profile constant along all the samples to avoid overfitting. In these conditions, the estimated error in the position of the headgroups is 2% and 5% for the width of the Gaussian. The pure histidine derivative DMHNHC14 has been fitted to a core-shell model as described in Reference. SAXS of the pure DMHNHC14 compound was measured using an in-house instrument S3-MICRO (Hecus X-ray systems GMBH, Graz, Austria) coupled to a GENIX-Fox three-dimensional (3D) X-ray source (Xenox, Grenoble, France), as described in Reference and performing the same procedures as detailed therein.

N(π),N(τ)-bis(methyl)-L-Histidine tetradecyl amide [DMHNHC14]
MIC [1]: 227 µM
MIC [2]: 14 µM
MIC [3]: 28 µM
MIC [4]: 28 µM
MIC [5]: 28 µM
Aggregation number ([6]; from SAXS core-shell fit): 64
Area per molecule (SAXS) ([6]; from SAXS core-shell fit): 0.66 nm^2
Hydration degree per polar head ([6]; from hydrophilic shell volume and electronic density): about 17 water molecules
Hydrophilic corona thickness (core-shell model) ([6]; micelles of pure surfactant): 0.88 nm
Hydrophobic radius (core-shell model) ([6]; micelles of pure surfactant): 1.84 nm
